Measured values: ChEMBL document CHEMBL3507680, “University of Dundee, Gates Library screen for HepG2 cell viability”

Assay: Human HepG2 cell viability assay in 384 well format
Format: toxicity, cell-based
Design: dose 125 nL, time 70.5 hour; concentration not given beside the values
Details: HepG2 cells, read-out: Inhibition

Point of comparison: `CN(C)C(=O)N1CCN(c2ccc3ccc(C(=O)NC4CC4)cn23)CC1`, cytotoxicity at 70.5 h 11.8%. Against it:
- Cc1cc2[nH]c(=O)c(=O)[nH]c2cc1S(=O)(=O)NC1CCC(C)CC1 (configuration not stated) — lower, -5.16%
- O=C1c2c(O)cc(O)cc2O[C@@H](c2ccc(O)cc2)[C@@H]1O — lower, -7.81%
- CN1C[C@H](O)C[C@H]1c1nc(-c2ccc(OC(F)(F)F)cc2)no1 — lower, -6.54%
- Cn1ccnc1CN1C[C@H]2CN(S(C)(=O)=O)CCN2C1=O — lower, -0.342%
- CC(C)c1noc([C@@H]2C[C@H](NS(=O)(=O)Cc3ccccc3)CN2C)n1 — lower, -0.576%
- CO[C@H]1COCCN(C(=O)c2ccc(C#N)cc2)C1 — lower, 9.9%
- Cc1ccc(-c2cn3c(n2)CO[C@@H](CNCc2cnn(C)c2)C3)cc1 — lower, 6.98%
- CC(=O)N1CC[C@H](c2nnc(Cc3c[nH]c4ccccc34)o2)C1 — lower, -3.38%
- c1ccc(CNC[C@H]2COCc3nc4cccnc4n32)cc1 — higher, 11.9%
- CCNC(=O)N[C@H]1C[C@@H](Cc2cc(CN3CCCCC3)on2)C1(C)C — lower, -4.13%
- FC(F)(F)c1ccc2nc([C@H]3CCN(C4CCOCC4)C3)[nH]c2c1 — lower, -12.9%
- Cc1nnc([C@H]2CCN(CCCc3ccccc3)C2)o1 — lower, 8.95%
- c1cncc(O[C@H]2COCCN(CC3CC3)C2)c1 — lower, 0.0943%
- CC(C)Cc1cc(CC2(NCc3ccco3)COC2)no1 — lower, -3.13%
- COc1ccc(CNC2(Cc3cc(CC(C)C)on3)COC2)cc1 — lower, 9.64%
- COc1ccc(-c2noc([C@@H]3C[C@@H](O)CN3C3CCCCC3)n2)cc1 — lower, -1.99%
- CC1=C[C@@H](CNS(C)(=O)=O)[C@H](C(C)C)C[C@H]1CC(=O)NCCN(C)C — lower, 1.17%
- O=C(C1CC1)N1CC[C@H](c2nc3ccccc3o2)C1 — lower, 5.84%
- Cc1ccc(N2C(=O)N[C@@H]3CCN(C(=O)C4CCCC4)[C@@H]3C2=O)cc1 — lower, -13.1%
- COc1ccc(CN2C[C@@H]3OCC(=O)N(Cc4nccn4C)[C@@H]3C2)cc1 — lower, -3.1%
- Cc1cc2c(C)cc(O)cc2c(=O)o1 — lower, -14.8%
- COc1ccc(NC(=O)Nc2c(O)c3ccccc3oc2=O)cc1 — lower, -1.02%
- CCOCc1nc(N2CCOCC2)sc1C(=O)NCCCc1ccco1 — lower, 0.741%
- CCN(CC)CCNCC1CCOC(C)(C)C1 (configuration not stated) — lower, -5.74%
- CC(C)NC(=O)COc1cccc(-c2nc(C(C)C)no2)c1 — higher, 20.9%
- COC(=O)c1ccccc1NC(=O)c1c(C)cn(C)c1CC(=O)O — higher, 18.3%
- Cc1cc2[nH]c(=O)c(=O)[nH]c2cc1S(=O)(=O)NC1CCCCC1 — lower, -3.77%
- COc1cccc(CNC(=O)CCC2=Nc3ccccc3S(=O)(=O)N2)c1 — lower, -1.77%
- Cc1cccn2c(=O)cc(CSCC(=O)Nc3nnc(C(C)C)s3)nc12 — lower, 1.52%
- CCn1nc(Br)nc1Sc1ccccc1NC(C)=O — lower, -0.88%
- Cc1ccn(CCC(=O)NC(C)Cc2ccco2)n1 (configuration not stated) — lower, -6.56%
- Cc1nc(N2CCN(C)CC2)ncc1C(=O)N1CCCCC1 — lower, -0.181%
- CCN(CC)S(=O)(=O)c1ccc2c(c1)N(Cc1ccncc1)C(=O)CS2 — lower, -3.41%
- CCNC(=O)COc1cc(CC)c2c(C)nn(-c3ccc(C)cc3)c2n1 — lower, -3.18%
- CCOCc1nc(N2CCCC2)sc1C(=O)NCCC(=O)OCC — lower, -6%
- CCOCCCNC(=O)C1(C)CCC(=O)N1c1cc(OC)ccc1OC (configuration not stated) — lower, -2.77%
- O=C1C[C@H]2[C@H](CCN2C(=O)c2cc[nH]n2)N1Cc1cccnc1 — lower, -9.27%
- CN(C)C(=O)N1CCC2(CC1)C(=O)N(CC1CCOC1)c1ccccc12 (configuration not stated) — lower, -9.22%
- O=C(c1ccco1)N1CCC2(CCC(=O)N2Cc2ccccc2)CC1 — lower, -11.1%
- Cc1cccc(CN2C(=O)CCC23CCN(C(=O)c2ccco2)CC3)c1 — lower, -10.9%
- CN(C)C(=O)c1ccc2ccc(N3CCN(CC4CC4)CC3)n2c1 — higher, 19.2%
- CN1[C@@H](C(=O)NCC2CC2)C[C@@H]2CN(Cc3ccoc3)C[C@@H]21 — higher, 13.7%
- CCc1ccc(C(=O)N2CCCC3(CCCC(=O)N3C)C2)cc1 (configuration not stated) — lower, -10.6%
- O=C(NCC1CC1)C1CCC2(CCN(C(=O)c3ccoc3)CC2)O1 (configuration not stated) — lower, -20%
- Cc1nc(CN2C(=O)C[C@@H]3[C@@H]2CCN3Cc2cnn(C)c2)cs1 — lower, -15.4%
- CN(C)CCN1C(=O)CCC12CCCN(C(=O)CC1CC1)CC2 (configuration not stated) — higher, 20.2%
- O=C(C1CCOCC1)N1CC[C@@H](O)[C@@H]1Cc1ccncc1 — lower, -0.548%
- CCOCC(=O)N1CCC2(CC1)CN(Cc1cccnc1)C(=O)CO2 — lower, -9.22%
- c1cnc(N2CCCC3(CCN(Cc4cccs4)C3)C2)nc1 (configuration not stated) — lower, -6.41%
- COCCN1C(=O)CCC12CCCN(C(=O)CC1CC1)CC2 (configuration not stated) — lower, -6.84%
- COCC(=O)NC[C@@]1(COc2cnccn2)C[C@@H](O)[C@@H](O)C1 — higher, 13.8%
- COCC(=O)NC[C@@]1(COc2cccnc2)C[C@@H](O)[C@@H](O)C1 — lower, 3.07%
- CNC(=O)C(C)(C)N1CCC[C@H]1C(=O)NCCN(C)C — lower, -16.8%
- O=C1CC2(CCCNC2)C(=O)N1Cc1cccc(F)c1 (configuration not stated) — lower, -8.03%
- O=C1CC2(CCCNC2)C(=O)N1Cc1ccc(Cl)cc1 (configuration not stated) — lower, -15.9%
- O=C1CC2(CCCNC2)C(=O)N1Cc1cccc(Cl)c1 (configuration not stated) — higher, 29.4%
- O=C(O)c1cc(NS(=O)(=O)c2ccc(Cl)s2)ccc1N1CCOCC1 — lower, -2.78%
- CC(C)CN1CCC2(C=C(C(=O)NC3CC3)c3ccccc32)CC1 — lower, -11.9%
- COCCN1CCC2(CCN(Cc3ccc(OC)cc3)CC2)C1=O — lower, -11.1%
- CCO[C@@H]1CO[C@@]2(CCN(Cc3ccc4c(c3)OCO4)C2)C1 — lower, -17.3%
- CC(C)CN1CCC2(CCN(Cc3ccc(F)cc3)CC2)C1=O — lower, -5.32%
- C[C@H]1CN(C(=O)c2ccoc2)C[C@@]12CCN(CCN(C)C)C2=O — higher, 14.7%
- CC(C)NC(=O)CC1COC2(CCN(Cc3ccsc3)CC2)C1 (configuration not stated) — lower, -9.99%
- O=C(NCC1CC1)C1CCC2(CCN(C(=O)c3cccnc3)CC2)O1 (configuration not stated) — lower, -9.48%
- CN(C)C(=O)CN1C(=O)CCC12CCN(Cc1ccsc1)CC2 — lower, -15.7%
- CCN1C(=O)CCC12CCCN(Cc1ccc(F)cc1)CC2 (configuration not stated) — lower, -9.34%
- Cc1ccc(CN2CCC3(CCC(=O)N3CC(=O)N(C)C)CC2)s1 — lower, -13.1%
- O=C(C1CCCC1)N1C[C@@H]2CCN(c3cnccn3)C[C@@H]2C1 — lower, -1.88%
- CC(=O)N1CCN(Cc2ccco2)CC2(CC(=O)N(C)C2)C1 (configuration not stated) — higher, 20.7%
- O=C(c1ccco1)N1CC2(CCNCC2)c2cc(Cl)ccc21 — higher, 27.2%
- CC(=O)N1[C@H](CN(C)C)C[C@@H]2CN(C(=O)c3cncc(C)c3)CC[C@@H]21 — lower, -10.6%
- COc1ccc(CN2CCC3(CC2)CCN(CCN(C)C)C3=O)cc1 — lower, -18%
- O=C1CCC2(CCN(Cc3ccc(F)cc3)CC2)N1CCN1CCCC1 — lower, -19.9%
- CN1[C@@H](C(=O)NCC2CC2)C[C@H]2CN(Cc3cccc(C#N)c3)C[C@H]21 — lower, -13.8%
- CN1CCC(CN2CCC3(CCCN(Cc4ccoc4)C3)C2=O)CC1 (configuration not stated) — lower, -10.7%
- c1ccc(N2CCC3(COCCN(Cc4cccs4)C3)C2)nc1 (configuration not stated) — lower, -4.82%
